What was measured:
[1] = tested on: Green Peach Aphid (Myzus persicae) (MYZUPE); test: Bioassays on Green Peach Aphid (GPA), foliar spray on cabbage seedlings; format: in vivo; details: 72 h, 200 ppm foliar spray on cabbage seedlings, graded after three days, Abbott-corrected % control, read-out: MYZUPE % Ctrl @ 200 ppm
Protocol: Certain molecules disclosed in this document were tested against GPA using procedures described in the following example. In the reporting of the results, the “Table 3: GPA (MYZUPE) and sweetpotato whitefly-crawler (BEMITA) Rating Table” was used (See Table Section).
Cabbage seedlings grown in 3-inch pots, with 2-3 small (3-5 cm) true leaves, were used as test substrate. The seedlings were infested with 20-50 GPA (wingless adult and nymph stages) one day prior to chemical application. Four pots with individual seedlings were used for each treatment. Test compounds (2 mg) were dissolved in 2 mL of acetone/methanol (1:1) solvent, forming stock solutions of 1000 ppm test compound. The stock solutions were diluted 5× with 0.025% Tween 20 in H2O to obtain the solution at 200 ppm test compound. A hand-held aspirator-type sprayer was used for spraying a solution to both sides of […] leaves until runoff. Reference plants (solvent check) were sprayed with the diluent only containing 20% by volume of acetone/methanol (1:1) solvent. Treated plants were held in a holding room for three days at approximately 25° C. and ambient relative humidity (RH) prior to grading. […] Percent Control was measured by using Abbott's correction formula (W. S. Abbott, “A Method of Computing the Effectiveness of an Insecticide” J. Econ. Entomol. 18 (1925), pp. 265-267) as follows. […]

[2] = tested on: Sweetpotato Whitefly-Crawler (Bemisia tabaci) (BEMITA); test: Insecticidal test for sweetpotato whitefly-crawler in foliar spray assay on cotton plants; format: in vivo; details: 200 ppm foliar spray on cotton plants, graded after 8-9 days, Abbott-corrected % control, read-out: BEMITA % Ctrl @ 200 ppm
Protocol: Cotton plants grown in 3-inch pots, with 1 small (3-5 cm) true leaf, were used as test substrate. The plants were placed in a room with whitefly adults. Adults were allowed to deposit eggs for 2-3 days. After a 2-3 day egg-laying period, plants were taken from the adult whitefly room. Adults were blown off leaves using a hand-held Devilbiss sprayer (23 psi). Plants with egg infestation (100-300 eggs per plant) were placed in a holding room for 5-6 days at 82° F. and 50% RH for egg hatch and crawler stage to develop. Four cotton plants were used for each treatment. Compounds (2 mg) were dissolved in 1 mL of acetone solvent, forming stock solutions of 2000 ppm. The stock solutions were diluted 10× with 0.025% Tween 20 in H2O to obtain a test solution at 200 ppm. A hand-held Devilbiss sprayer was used for spraying a solution to both sides of cotton leaf until runoff. Reference plants (solvent check) were sprayed with the diluent only. Treated plants were held in a holding room for 8-9 days at approximately 82° F. and 50% RH prior to grading. Evaluation was conducted by counting the number of live nymphs per plant under a microscope. Insecticidal activity was measured by using Abbott's correction formula and presented in “Table 4. Biological Data for GPA (MYZUPE) and sweetpotato whitefly-crawler (BEMITA)” (see column “BEMITA”): […]

Molecule `C#CCN(C(=O)CCSC)n1cc(-c2cccnc2)nc1C` [Compound 42] has an inhibition at 200 ppm [1] of 0 to 80% and an inhibition at 200 ppm [2] of 80 to 100%.
